Where only a bound is given, the exact number is not on record here.

The target in experiment [1] is T1, Tyrosine-protein phosphatase non-receptor type 1 (Homo sapiens, UniProt P18031).
T1 sequence (P18031 whole entry): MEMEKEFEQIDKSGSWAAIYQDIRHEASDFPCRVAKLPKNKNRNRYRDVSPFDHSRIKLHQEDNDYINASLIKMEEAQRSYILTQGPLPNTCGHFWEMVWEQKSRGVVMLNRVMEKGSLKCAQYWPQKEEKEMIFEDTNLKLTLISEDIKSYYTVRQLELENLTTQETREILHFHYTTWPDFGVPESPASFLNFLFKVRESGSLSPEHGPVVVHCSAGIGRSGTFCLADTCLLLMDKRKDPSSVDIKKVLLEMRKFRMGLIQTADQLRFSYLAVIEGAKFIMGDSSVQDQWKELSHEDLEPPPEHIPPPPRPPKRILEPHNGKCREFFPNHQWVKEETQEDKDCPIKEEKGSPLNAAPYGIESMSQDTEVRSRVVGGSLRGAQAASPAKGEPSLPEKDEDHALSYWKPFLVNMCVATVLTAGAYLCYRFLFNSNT
As to the kind of experiment: Inhibition of N-terminal GST tagged recombinant human PTP1B catalytic domain (1 to 321 residues) expressed in Escherichia coli using pNPP as substrate preincubated for 10 mins followed by substrate addition and measured every 5 mins for 30 mins.

The target in experiment [2] is T1, Tyrosine-protein phosphatase non-receptor type 1. As to the kind of experiment: Competitive inhibition of N-terminal GST-tagged recombinant human PTP1B catalytic domain (1 to 321 residues) expressed in Escherichia coli assessed as inhibitory constant using pNPP as substrate preincubated for 10 mins followed by incubation with substrate for 30 mins and measured every 5 mins for 30 mins by Lineweaver-burk plot based Dixon plot analysis.

The target in experiment [3] is T2, Tyrosine-protein phosphatase non-receptor type 1 (Homo sapiens) (UniProt P18031).
T2 sequence (whole entry): T1 sequence (P18031 whole entry)
Description: Ratio of kinetic constant Kik to Kiv at N-terminal GST-tagged recombinant human PTP1B catalytic domain (1 to 321 residues) expressed in Escherichia coli using pNPP as substrate preincubated for 10 mins followed by incubation with substrate for 30 mins and measured every 5 mins for 30 mins by Lineweaver-burk plot analysis.

With `CC1=C(CO)[C@@H](CCO)[C@H](O)C1`, in experiment [1], the IC50 (usually the midpoint of a concentration-inhibition curve) was > 80 µM.

As for `COC(=O)C1=C(C)C[C@@H](O)[C@@H]1CCO`, in experiment [1], the IC50 is > 80 µM.

On to `CC1=C2COC(=O)[C@@H](CO)[C@H]2[C@H](O)C1`, for which the IC50 in experiment [1] came out at 8.9 µM. In experiment [2], the Ki (commonly the equilibrium dissociation constant of an inhibitor or competing ligand from its target) stood at 2.57 µM. In experiment [3], the Ratio was in the range of 6.86 to 37.6.

As to `COC(=O)C1=C(C)C[C@@H](O)[C@@H]1[C@H](CO)C(=O)OC`, in experiment [1], the IC50 is > 80 µM.

On to `COC(=O)C1=CO[C@@]2(C)C[C@@H](O)[C@H]1[C@@H]2CO`, for which the IC50 in experiment [1] amounted to 22.2 µM.

In the case of `COC(=O)[C@H](CO)[C@@H]1C(CO)=C(C)C[C@H]1O`, the IC50 in experiment [1] was > 80 µM.

As to `COC(=O)[C@H]1COC(=O)C2=C(C)C[C@@H](O)[C@@H]21`, the IC50 in experiment [1] was > 80 µM.

As for `COC(=O)[C@@H](CO)[C@@H]1C(CO)=C(C)C[C@H]1O`, in experiment [1], the IC50 was > 80 µM.

Turning to `CC1=C[C@@H](O)[C@@H]2[C@@H](CO)C(=O)O[C@]12CO`, the IC50 in experiment [1] is 43.6 µM.

For `CC1=C2COC(=O)[C@H](CO)[C@H]2[C@H](O)C1`, the IC50 in experiment [1] is 9.8 µM. Moreover, the Ki in experiment [2] was 4.13 µM. Moreover, the Ratio in experiment [3] was in the range of 6.86 to 37.6.

Consider `CC1=C2C(=O)OCC[C@H]2[C@H](O)C1`, for which the IC50 in experiment [1] is > 80 µM.

Source of the values: ChEMBL document CHEMBL4414619, “Protein Tyrosine Phosphatase 1B Inhibitory Iridoids from Psydrax subcordata” (J Nat Prod, 2019).
